Drawing on ChEMBL document CHEMBL5647688, “Mitogen-activated protein kinase (MEK/ERK) inhibition sensitizes cancer cells to centromere-associated protein E inhibition” (Int J Cancer, 2013), this text covers CI for one molecule.

Format in all cases: functional
Test [1] concerns NB-1691. As to the kind of experiment: Synergistic cytotoxicity against human NB-1691 cells assessed as combination index at ED 50 measured after 72 hrs in presence of SN-38 by Cell-titer Glo reagent assay.
For test [2], the system named is NB-1691. In words: Synergistic cytotoxicity against human NB-1691 cells assessed as combination index at ED 50 measured after 72 hrs in presence of temozolomide and SN-38 by Cell-titer Glo reagent assay.
Test [3] has as its system SK-N-FI. As to the kind of experiment: Synergistic cytotoxicity against human SK-N-FI cells assessed as combination index at ED 50 measured after 72 hrs in presence of SN-38 by Cell-titer Glo reagent assay.
For test [4], the system named is SK-N-FI. As to the kind of experiment: Synergistic cytotoxicity against human SK-N-FI cells assessed as combination index at ED 50 measured after 72 hrs in presence of SN-38 and temozolomide by Cell-titer Glo reagent assay.
Test [5] concerns NB-1691. As to the kind of experiment: Synergistic cytotoxicity against human NB-1691 cells assessed as combination index at ED 50 measured after 72 hrs in presence of concurrent treatment of […] inhibitor CI-1040 by Cell-titer Glo reagent assay.
A short description of test [6]: Synergistic cytotoxicity against human NB-1771 cells assessed as combination index at ED 50 measured after 72 hrs in presence of concurrent treatment of […] inhibitor CI-1040 by Cell-titer Glo reagent assay.
The test system of test [7] is SK-N-FI. As to the kind of experiment: Synergistic cytotoxicity against human SK-N-FI cells assessed as combination index at ED 75 measured after 72 hrs in presence of concurrent treatment of […] inhibitor CI-1040 by Cell-titer Glo reagent assay.
Test [8] deals with SK-N-FI. In words: Synergistic cytotoxicity against human SK-N-FI cells assessed as combination index at ED 50 measured after 72 hrs in presence of sequential treatment of […] inhibitor CI-1040 by Cell-titer Glo reagent assay.
The next test concerns NCI-H1563. In words: Synergistic cytotoxicity against human NCI-H1563 cells assessed as combination index at ED 50 measured after 72 hrs in presence of MEK inhibitor GSK1120212 by Cell-titer Glo reagent assay.
The subject of the next test is CAPAN-1. In words: Synergistic cytotoxicity against human CAPAN-1 cells expressing KRAS mutant assessed as combination index at ED 50 measured after 72 hrs in presence of MEK inhibitor GSK1120212 by Cell-titer Glo reagent assay.
Another test concerns RKO. As to the kind of experiment: Synergistic cytotoxicity against human RKO cells expressing BRAF mutant assessed as combination index at ED 50 measured after 72 hrs in presence of MEK inhibitor GSK1120212 by Cell-titer Glo reagent assay.
Another test deals with NCI-H23. In words: Synergistic cytotoxicity against human NCI-H23 cells assessed as combination index at ED75 measured after 72 hrs in presence of MEK inhibitor GSK1120212 by Cell-titer Glo reagent assay.
The subject of the next test is NCI-H520. As to the kind of experiment: Synergistic cytotoxicity against human NCI-H520 cells assessed as combination index at ED75 measured after 72 hrs in presence of MEK inhibitor GSK1120212 by Cell-titer Glo reagent assay.

Consider `CC(C)Oc1ccc(C(=O)N[C@H](CNC(=O)CN(C)C)Cc2ccc(-c3cn4cccc([C@H](C)O)c4n3)cc2)cc1Cl` [GSK-923295A], for which the CI in the test with NB-1691 [1] was 0.394; in the test with NB-1691 [2], 0.049; with SK-N-FI [3] it was 1.845; in the test on SK-N-FI [4], 0.67; with NB-1691 [5] it was 0.256; in [6] it was 0.136. The CI in the test on SK-N-FI [7] amounted to 0.379; with SK-N-FI [8] it was 0.834; in the test with NCI-H1563, 0.405; in the test on CAPAN-1, 0.053; with RKO it was 0.373; in the test with NCI-H23 it was 0.234. For the same molecule, in the test on NCI-H520, the CI is listed as 0.715.
